The record followed here is US12421242B2, “Substituted tetrahydropyrrolo-pyridinone compounds and their use in treating medical conditions” (Karuna Therapeutics, Inc., priority 2022, dated 2025).

In one assay the target is T1, human M4 receptor (Homo sapiens, UniProt P08173).
T1 construct: expressed in transfected cells
T1 sequence (P08173 1-479): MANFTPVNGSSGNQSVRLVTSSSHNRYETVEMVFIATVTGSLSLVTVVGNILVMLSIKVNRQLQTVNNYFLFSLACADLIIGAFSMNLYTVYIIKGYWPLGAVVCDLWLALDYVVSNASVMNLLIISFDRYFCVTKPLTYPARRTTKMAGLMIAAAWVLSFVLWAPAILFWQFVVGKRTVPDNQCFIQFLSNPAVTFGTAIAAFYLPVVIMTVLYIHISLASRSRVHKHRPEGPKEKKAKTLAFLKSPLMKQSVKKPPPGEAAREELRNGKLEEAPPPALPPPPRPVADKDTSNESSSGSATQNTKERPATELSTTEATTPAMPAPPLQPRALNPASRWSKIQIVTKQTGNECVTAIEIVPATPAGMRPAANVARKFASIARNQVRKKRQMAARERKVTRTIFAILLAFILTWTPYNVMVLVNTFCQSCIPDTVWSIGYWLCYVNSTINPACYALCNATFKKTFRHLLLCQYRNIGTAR
The assay is described as follows: M4 GTPγS PAM assay. Format: biochemical. Particulars: CHO-K1 membranes expressing human M4, with EC20 acetylcholine (40 nM). The procedure, abridged:
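Membranes from CHO-K1 cells stably expressing human M4 preincubated 10-15 min with compound in HEPES/MgCl2/NaCl buffer with 0.1 µM GDP, then with EC20 acetylcholine (40 nM) for 10-15 min. [35S]GTPγS added for 1 h at room temperature; filter-bound radioactivity counted by scintillation.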

The next assay concerns the target T2, hM4 receptors (Homo sapiens, UniProt P08173).
T2 construct: expressed in transfected cells; host or cells: CHO cells
T2 sequence (P08173 1-479): T1 sequence (P08173 1-479)
The assay is described as follows: Human M4 PAM pERK assay. In kind it is cell-based. Particulars: PAM mode. The procedure, abridged: (§1)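 CHO cells expressing hM4 or rM4 were serum-starved 4 h, then given compound (ten-point curve, 10 μM top, duplicate) with an EC20 of acetylcholine (10 nM final) for 5 min at 37° C. Phospho-ERK in lysates was detected by TR-FRET.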

Another assay concerns the target T3, rM4 receptors (Rattus norvegicus, UniProt P08485).
T3 construct: expressed in transfected cells; host or cells: CHO cells
T3 sequence (P08485 1-478): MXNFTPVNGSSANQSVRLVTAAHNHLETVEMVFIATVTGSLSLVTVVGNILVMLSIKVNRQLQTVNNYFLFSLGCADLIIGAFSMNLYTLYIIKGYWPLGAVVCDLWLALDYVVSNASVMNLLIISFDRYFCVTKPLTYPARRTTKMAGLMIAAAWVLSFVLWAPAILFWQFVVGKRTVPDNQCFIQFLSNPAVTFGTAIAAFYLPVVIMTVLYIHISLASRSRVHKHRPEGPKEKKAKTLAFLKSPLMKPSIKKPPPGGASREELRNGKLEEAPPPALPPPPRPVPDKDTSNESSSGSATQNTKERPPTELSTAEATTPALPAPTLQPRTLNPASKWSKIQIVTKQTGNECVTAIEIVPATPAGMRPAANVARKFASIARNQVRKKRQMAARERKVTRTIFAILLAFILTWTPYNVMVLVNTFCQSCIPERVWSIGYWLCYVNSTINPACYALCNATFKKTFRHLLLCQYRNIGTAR
The assay is described as follows: Rat M4 PAM pERK assay. In kind it is cell-based. Particulars: PAM mode. The procedure, abridged: as §1

`Cc1cc(=O)n(C)c2c1[C@@H](C)N(C(=O)c1ccc3nc(C4CC4)sc3c1)C2` [Compound I-103]: the EC50 (in general, the concentration giving half of the maximal effect) on human M4 receptor is above 2000 nM; at hM4 receptors, 100 to 500 nM; at rM4 receptors, 500 to 2000 nM.

For the molecule `Cc1c2c(n(C)c(=O)c1Cl)C(C)N(C(=O)c1cnn(C(F)(F)F)c1)C2` (stereo not drawn) [Compound I-109], the EC50 at human M4 receptor is above 2000 nM; on hM4 receptors, 500 to 2000 nM; on rM4 receptors, above 2000 nM.

For `Cc1c2c(n(C)c(=O)c1C)CN(C(=O)c1cnn(C(F)(F)F)c1)C2` [Compound I-112], the results for the EC50 at human M4 receptor, at hM4 receptors and on rM4 receptors were 100 to 500 nM, below 100 nM and above 2000 nM, respectively.

For the molecule `Cc1c2c(n(C)c(=O)c1F)CN(C(=O)c1cnn(C(F)(F)F)c1)C2` [Compound I-113, 3-Fluoro-1,4-dimethyl-6-(1-(trifluoromethyl)-1H-pyrazole-4-carbonyl)-1,5,6,7-tetrahydro-2H-pyrrolo[3,4-b]pyridin-2-one], the EC50 at human M4 receptor is 500 to 2000 nM; on hM4 receptors it was below 100 nM; at rM4 receptors it was above 2000 nM.
